SMILES strings stand for the structures. Entries after “also recorded” stand apart in the source; their conditions may differ. A value given as a limit tells only on which side of the number the result lay.

Series [1] can be described thus: Acute toxicity (LD50), intraperitoneal administration to female ICR mice. The note with it: mouse, in vivo. Here is the method:
Toxicity of Conagenin was tested by intraperitoneal administration to female ICR mice and estimated as its LD50 being higher than 50 mg/Kg.

For the next series, the system named is Leukemia L1210 cells. Nature of the series: Effect on the surface of carcinoma cell membrane: binding of radiolabelled Concanavalin A to Leukemia L1210 cells. It is filed as cell-based. Here is the method:
Each of the resulting suspensions was incubated in a CO2 -incubator (CO2 concentration:5%) at 37° C. for 2 days. A radioisotope-labelled Concanavalin A (Concanavalin A N-[acetyl-^3 H] acetylated; a product of Amersham Co., Ltd.) in an amount of 40 nCi/ml was added to the suspension under incubation at a time of one hour before the end of the incubation. The incubated cells were fixed on a filter paper by a cell harvester and the radioactivity value of the cells so fixed was measured by a liquid scintillation counter. The respective values thus given were converted assumed that the radioactivity value of the control group sample was amounting to 100, and the converted values are shown in Table 4 as the increase in binding of Concanavalin A to L1210 cells.

The next series can be described thus: Acidic nature. It is filed as physicochemical.
Series [2] concerns Ehrlich's solid carcinoma. The series can be described thus: Inhibitory activity on Ehrlich's solid carcinoma in mice. Format: in vivo, mice (ICR, female). The note with it: for Percent inhibition (decrease in weight of solid carcinoma vs untreated control): once a day for 7 days from 7th day, weighed on 15th day. Here is the method:
(2) Inhibitory activity on Ehrlich's solid carcinoma in mice ICR mice (female, 6 weeks-aged, 4 mice in each group) were inoculated with Ehrlich's ascites carcinoma cells (2×10^6 per mouse in the form of a cell suspension) subcutaneously at the groin of the mice. After the 7th day from the inoculation of the carcinoma cells, an injectable solution of Conagenin was intraperitoneally injected into the carcinoma-bearing mice at a dosage of 6.25, 3.1, 1.56, 0.78, 0.39 and 0.195 mg/Kg once a day during the consecutive 7 days for each group of mice. On the 15th day from the inoculation of the carcinoma cells, the solid carcinoma so grown was cut off and the weight of the solid carcinoma was determined. Control test was conducted using 8 mice of the same type as above in a usual manner. Percent inhibition of the proliferation of the solid carcinoma, i.e. the percent decrease in the weight of the solid carcinoma in each treated group of mice administered with Conagenin as compared to that in the control group of mice (untreated), is callculated and shown in Table 3 below.

The next series can be described thus: Solubility. It is filed as physicochemical.

Broadly, the LD50 is the dose expected to kill half of the subjects tested. Low values mean greater toxicity, high ones lower toxicity. For the molecule `CC(O)C(C)C(O)C(=O)NC(C)(CO)C(=O)O` (centres unmarked) [Conagenin], the “toxicity (in words)” value in series [1] is on record as “low toxicity”. The molecule further yielded a median lethal dose (LD50) in series [1] (ip, intraperitoneal, female ICR mice) greater than 50 mg/kg. Further, the “binding of Concanavalin A to L1210 cells (in words)” value with Leukemia L1210 cells is reported as “could increase the binding of Concanavalin A to L1210 cells”. The activity at 0.25 µg/mL in the series with Leukemia L1210 cells (Mus musculus, L1210, 48 h, 0.25 μg/ml, 37° C., 2 days, control group = 100, read-out: Increase in binding of Concanavalin A) was less than 100%. The activity at 0.5 µg/mL in the series on Leukemia L1210 cells (Mus musculus, L1210, 48 h, 0.5 μg/ml, 37° C., 2 days, control group = 100, read-out: Increase in binding of Concanavalin A) came to 129%. Besides, the activity at 1 µg/mL with Leukemia L1210 cells (Mus musculus, L1210, 48 h, 1.0 μg/ml, 37° C., 2 days, control group = 100, read-out: Increase in binding of Concanavalin A) came to 121%. Besides, the “acidity (in words)” value in the series “Acidic nature” was “weakly acidic”. Also, the “Percent inhibition (decrease in weight of solid carcinoma vs untreated control)” value in series [2] (0.195 mg/Kg/day i.p.) came out at 44%; in series [2] (0.39 mg/Kg/day i.p.) it was 29%; in series [2] (0.78 mg/Kg/day i.p.), 58%; in series [2] (1.56 mg/Kg/day i.p.) it was 44%; in series [2] (3.1 mg/Kg/day i.p.), 67%; in series [2] (6.25 mg/Kg/day i.p.) it was 45%. The “carcinostatic or antitumor activity in vivo (in words)” value in series [2] (Ehrlich's solid carcinoma in mice) is “significant carcinostatic or antitimor activity; also recorded: significant carcinostatic or antitumor activity in vivo”. In the series “Solubility” (chloroform), the Solubility in chloroform result is given as “insoluble; also recorded: sparingly soluble”. The Solubility in methanol result in “Solubility” (methanol) is reported as “readily soluble; also recorded: Easily soluble”. Further, the Solubility in water result in “Solubility” (water) was “soluble in water”.

Source of the values: patent publication US5098935A, “Carcinostatic or antitumor antibiotic, conagenin, and production and uses thereof” (Zaidan Hojin Biseibutsu Kagaku Kenkyu Kai, priority 1989, dated 1992).
